Results taken from publication PMC2765055 (Bioorganic & medicinal chemistry, 2009).
“Also recorded” adds a separate entry of the source. Where two headings read alike, the source gives them in different places. Blank lines part the entries; values can stand above or below the compound they belong to.

How the values were obtained:
EBV [1] = assay: EBV DNA hybridization assay in Akata cells; assay type: cell-based, Epstein-Barr virus
[2] = Cytotoxicity, EBV/Akata column; assay type: cell-based; settings: human, Akata cells
MEF = settings: read-out: CC50 MCMV/MEF; cited from earlier work
HSV-1 [3] = settings: read-out: EC50 HSV-1/BSC-1; ELISA in BSC-1 cells; cited from earlier work
KB cells = settings: read-out: CC50 HSV-1/BSC-1; replicating KB cells; cited from earlier work
HCMV AD169 strain = settings: read-out: EC50 HCMV/HFF AD169, plaque reduction; cited from earlier work
EBV [4] = settings: read-out: EC50 EBV/Akata; DNA hybridization assay; cited from earlier work
HFF cells [5] = settings: read-out: CC50 HCMV/HFF Towne; visual cytotoxicity of HFF; cited from earlier work
VZV [6] = settings: cited from earlier work; for EC50: read-out: EC50 VZV/HFF, CPE assay
HSV-1 [7] = settings: read-out: EC50 HSV-1/HFF; CPE assay; cited from earlier work
HFF cells [8] = settings: neutral red uptake, cited from earlier work
HSV-2 [9] = settings: read-out: EC50 HSV-2/HFF; CPE assay; cited from earlier work
EBV [10] = settings: read-out: EC50 EBV; Daudi cells, viral capsid antigen (VCA) assay; cited from earlier work
hepatitis B virus (HBV) [11] = settings: cited from earlier work
HSV-1 [12] = settings: read-out: EC50 HSV-1/BSC-1; plaque reduction in BSC-1 cells; cited from earlier work
[13] = system: HCMV Towne strains with mutations in UL97; assay: HCMV Towne strains with UL97 mutations; assay type: cell-based, human cytomegalovirus; settings: strains E8 and 2696r
[14] = Cytotoxicity by neutral red uptake; assay type: cell-based; settings: human, HFF cells
HFF cells [15] = assay: Cytotoxicity by neutral red uptake; assay type: cell-based; settings: read-out: CC50 HSV-1/HFF; neutral red uptake, HSV-1/HFF column
[16] = Visual cytotoxicity of HFF's in cells unaffected by virus; assay type: cell-based; settings: human, HFF cells (not affected by virus)
[17] = Cytotoxicity in replicating KB cells; assay type: cell-based; settings: human
[18] = system: HCMV, MCMV, HSV-1, HSV-2, VZV, EBV, HBV, HCV; assay: Antiviral panel, all tested viruses; assay type: cell-based
hepatitis B virus (HBV) [19] = assay: HBV antiviral test; assay type: cell-based
hepatitis C virus (HCV) = assay: HCV antiviral test; assay type: cell-based
VZV [20] = assay: VZV CPE assay in HFF; assay type: cell-based, varicella zoster virus
HSV-1 [21] = assay: HSV-1 CPE inhibition assay in HFF; assay type: cell-based, herpes simplex virus type 1; settings: Human alphaherpesvirus 1, read-out: EC50 HSV-1/HFF
HSV-2 [22] = assay: HSV-2 CPE inhibition assay in HFF; assay type: cell-based, herpes simplex virus type 2; settings: Human alphaherpesvirus 2, read-out: EC50 HSV-2/HFF
[23] = Cytotoxicity, MCMV/MEF column; assay type: cell-based; settings: mouse, MEF cells
[24] = read-out: CC50 HCMV/HFF AD169, AD169 column
[25] = read-out: CC50 HSV-1/HFF, HSV-1/HFF column

EC50 (EBV [1]; human gammaherpesvirus 4, Akata, read-out: EC50 EBV/Akata): 8.4 µM
SMILES: Nc1nc2c(ncn2COCCO)c(=O)[nH]1 [Acyclovir, acyclovir]
CC50 [2]: > 100 µM

SMILES: Nc1nc2c(ncn2/C=C2/CC2(CO)CO)c(=O)[nH]1 [Compound 2b, cyclopropavir]
CC50 (MEF): > 380 µM
EC50 (HSV-1 [3]): > 100 µM
CC50 (KB cells): > 100 µM
EC50 (HCMV AD169 strain): 0.49 µM
EC50 (EBV [4]): 0.22 µM
CC50 (HFF cells [5]): > 100 µM
activity against VZV (VZV [6]; HFF): ineffective
EC50 (VZV [6]): > 380 µM
EC50 (HSV-1 [7]): > 380 µM
CC50 (HFF cells [8]; [24]): > 380 µM
CC50 (HFF cells [8]; [25]): > 380 µM
EC50 (HSV-2 [9]): > 380 µM

SMILES: Nc1nc(O)c2ncn(/C=C3/CC34COP(=O)(O)OC4)c2n1 (stereo not shown) [Compound 10]
CC50 (MEF): > 301 µM
CC50 (KB cells): > 100 µM
EC50 (HCMV AD169 strain): 6 µM
CC50 (HFF cells [5]): > 100 µM
EC50 (VZV [6]): > 301 µM
EC50 (EBV [10]): 0.96 µM
EC50 (HSV-1 [7]): > 301 µM
CC50 (HFF cells [8]; [24]): > 301 µM
CC50 (HFF cells [8]; [25]): > 301 µM
activity against HBV (hepatitis B virus (HBV) [11]): effective
EC50 (HSV-1 [12]): 20 µM

SMILES: Nc1nc2c(ncn2/C=C2/CC2(CO)CCP(=O)(O)O)c(=O)[nH]1 (stereo not drawn) [Compound 12, (Z)-9-{[2-(Hydroxymethy)l-2-(2-phosphonoethyl)cyclopropylidene]methyl}guanine]
activity against UL97 mutant strains compared with wild-type Towne HCMV [13]: as active
CC50 [14]: > 300 µM
CC50 (HFF cells [15]): > 300 µM

SMILES: Nc1nc2c(ncn2/C=C2\CC2(CO)CCP(=O)(O)O)c(=O)[nH]1 (stereo not drawn) [Compound 13, (E)-9-{[2-(Hydroxymethy)l-2-(2-phosphonoethyl)cyclopropylidene]methyl}guanine]
CC50 [16]: > 100 µM
CC50 [17]: > 100 µM
antiviral activity against all tested viruses [18]: devoid of potency; also recorded: devoid of antiviral activity
CC50 [2]: > 100 µM

SMILES: Nc1nc2c(ncn2/C=C2/CC23CCP(=O)(O)OC3)c(=O)[nH]1 (stereo not shown) [Compound 14]
activity against HBV (hepatitis B virus (HBV) [19]): inactive
activity against HCV (hepatitis C virus (HCV)): inactive
activity against VZV (VZV [20]; HFF): ineffective
activity against UL97 mutant strains compared with wild-type Towne HCMV [13]: as active
activity against EBV (EBV [1]; Akata cells): inactive; also recorded: ineffective

SMILES: Nc1nc2c(ncn2/C=C2\CC23CCP(=O)(O)OC3)c(=O)[nH]1 (stereo not shown) [Compound 15]
EC50 (HSV-1 [21]): > 300 µM
CC50 [16]: > 100 µM
EC50 (VZV [20]; Human alphaherpesvirus 3, read-out: EC50 VZV/HFF): > 300 µM
CC50 [14]: > 300 µM
CC50 (HFF cells [15]): > 300 µM
CC50 [17]: > 100 µM
antiviral activity against all tested viruses [18]: devoid of potency; also recorded: devoid of antiviral activity
EC50 (HSV-2 [22]): > 300 µM
CC50 [2]: > 100 µM

SMILES: Nc1nc(O)c2ncn(COC(CO)CO)c2n1 [Ganciclovir, ganciclovir]
CC50 [23]: > 100 µM
CC50 [16]: > 100 µM
CC50 [14]: > 100 µM
